This experiment deals with tau P301S mice. The protocol: Only 2-month-old male mice were used in the present study. Sample size was determined by Power and Precision (Biostat). The animals were randomly allocated to experimental groups. Investigators were blinded to the group allocation during the animal experiments. […] The protocol was reviewed and approved by the Emory Institutional Animal Care and Use Committee. Rabbit anti-tau N368 (1:1,000), and anti-APP585N (1:500) antibody, which specifically recognize the δ-secretase-derived tau and APP fragments respectively, were described previously. […] TUNEL in situ cell death detection kit was from Roche (Indianapolis, IN). […] All chemicals not included above were purchased from Sigma-Aldrich (St. Louis, MO). Recombinant δ-secretase was obtained from Sino Biological (Beijing, China), recombinant cathepsin-S was obtained from Athens Research and Technology (Athens, GA), recombinant caspase-3 and caspase-8 were obtained from Millipore (Billerica, MA).
Synaptic density was determined by electron microscopy as described previously. After deep anaesthesia, mice were perfused transcardially with 2% glutaraldehyde and 3% paraformaldehyde in PBS. Hippocampal slices were post-fixed in cold 1% OsO4 for 1 h. Samples were prepared and examined using standard procedures. Ultrathin sections (90 nm) were stained with uranyl acetate and lead acetate and viewed at 100 kV in a JEOL 200CX electron microscope. Four mice were examined in each group. Synapses were identified by the presence of synaptic vesicles and post synaptic densities.
Electrophysiological analysis was carried out as described previously. […] The hippocampi were cut into 400-μm thick transverse slices with a vibratome. A 0.1 MΩ tungsten monopolar electrode was used to stimulate the Schaffer collaterals. The field excitatory post synaptic potentials (fEPSPs) were recorded in CA1 stratum radiatum by a glass microelectrode filled with a-CSF with resistance of 3–4 MΩ. The stimulation output (Master-8; AMPI, Jerusalem) was controlled by the trigger function of an EPC9 amplifier (HEKA Elektronik, Lambrecht, Germany). fEPSPs were recorded under current-clamp mode. Data were filtered at 3 kHz and digitized at sampling rates of 20 kHz using Pulse software (HEKA Elektronik). The stimulus intensity (0.1 ms duration, 10–30 μA) was set to evoke 40% of the maximum f-EPSP and the test pulse was applied at a rate of 0.033 Hz. LTP of fEPSPs was induced by three theta-burst-stimulation (TBS; 4 pulses at 100 Hz, repeated three times with a 200-ms interval). Paired-pulse facilitation (PPF) was examined by applying pairs of pulses, which were separated by 20–500 ms intervals. The magnitudes of LTP are expressed as the mean percentage of baseline fEPSP initial slope.
The mice were trained in a round, water-filled tub (52′ diameter) in an environment rich with extra maze cues. An invisible escape platform was located in a fixed spatial location 1 cm below the water surface independent of a subject's start position on a particular trial. In this manner, subjects needed to utilize extra maze cues to determine the platform's location. At the beginning of each trial, the mouse was placed in the water maze with their paws touching the wall from 1 of 4 different starting positions (N, S, E, W). […] On reaching the invisible escape platform, subjects were left on it for an additional 5 s to allow for survey of the spatial cues in the environment to guide future navigation to the platform. After each trial, subjects were dried and kept in a dry plastic holding cage filled with paper towels to allow the subjects to dry off. […] The percentage of time that was spent in the quadrant, which previously contained the escape platform during task acquisition, was measured over 60 s. All trials were analysed for latency, swim path length and swim speed by means of MazeScan (Clever Sys, Inc.).
The solution was changed each day.

Consider `Nc1ccc(N2CCOCC2)c2nonc12` [compound 11, 7-(morpholin-4-yl)-2,1,3-benzoxadiazol-4-amine], for which the “phosphorylation, aggregation and oligomerization of tau” value (10 mg kg−1 d−1 oral, 3 months) is “attenuated”. Under “10 mg kg−1 d−1 oral, 3 months, Western blot”, the “cleavage of mouse and human tau after N368” value is recorded as “decreased the cleavage”. Also, the “Morris water maze latency to platform” value (five acquisition days) is listed as “decreased latency to platform”. Further, the “percentage of AT8- and AT100-positive neurons” value (hippocampus and cortex) is “decreased”. Besides, where the note is “hippocampus and cortex, immunohistochemistry”, the “percentage of neurons positive of tau N368” value was “decreased”. In addition, where the note is “mouse, in vivo”, the LTP amplitude entry is recorded as “significantly elevated the LTP amplitude”, the “behavioural deficits in probe trial (time in target quadrant)” value was “ameliorated”, the “dendritic spine density (Golgi stain)” value is “increased the density of spines” and the swim speed result is “not affected”. For the same molecule, where the note is “tau P301S mice”, the “concentrations of IL-1β and TNFα” value was “reduced the concentrations of inflammatory cytokines IL-1β and TNFα”. Besides, the “activity of δ-secretase in the brain” value (wild-type and tau P301S mice, 10 mg kg−1 d−1 oral, 3 months) is “significantly inhibited”.

(Values after article PMC5378956, “Inhibition of delta-secretase improves cognitive functions in mouse models of Alzheimer's disease” (Nature Communications, 2017).)
